Data reported in US8217085B2 (priority 2009, dated 2012).
Like-named read-outs stand apart in the source and are kept apart here.

How the values were obtained:
[1] = test system: ATCC strain 43300 Staphylococcus aureus; settings: methicillin alone, 12 μg/ml, 30 μg/ml and 60 μg/ml
Method: Additional antibiotic was added every 24 hours. The growth periods tested were 24 (FIG. 5), 48, 72, 96 and 120 hours.
USP<51> Antimicrobial Effectiveness protocol was used as the template experimental paradigm. […] All concentrations were plated out to the 10^−7 dilutions to ascertain cfu/ml. […] Additional antibiotic was added at the initial concentration every 24 hours.
ATCC strain 43300 Staphylococcus aureus was streaked out for isolations. An isolated colony was chosen, streaked again and incubated. Isolate was chosen and then diluted to a McFarland standard of one. The estimated value was then taken to inoculate tubes containing growth media and 12, 30 or 60 μg/ml methicillin with approximately 10^5 cfu/ml. These tubes were incubated and plated for counting cfu.
Material was calculated on a 10 ml volume. Sterile methicillin was added to each experimental condition to a final concentration of 12, 30 or 60 μg/ml antibiotic. Lactose Broth positive controls both with and without the 12 μg/ml, 30 μg/ml, 60 μg/ml antibiotic were inoculated with MRSA. […] Tubes were set up in singlet, but plated in triplicate, as described below.
All tubes were then inoculated with a dilution of the selected ATCC strain 43300 Staphylococcus aureus clone giving a final level of colony forming units of 1.49×10^5/ml (log=5.17). The tubes were incubated at 25° C. and mixed periodically. Antibiotic was re-inoculated every 24 hours at the initial concentration to maintain pressure on the organism. Plating was done at 24, 48, 72, and 120 hours. Each condition was plated by diluting 1 ml of growth material into 9 ml of MLB diluent broth. […] This mixture was serial diluted down to 10^−7 with 1 ml placed in triplicate in a sterile petri dish at each dilution point. 20 mls of TSA was added to each dilution, swirled and allowed to solidify. All dilutions were placed in a 35° C. incubator for 24 to 72 hours. Bacterial colonies on each plate were counted and the average taken then changed into log format.

[2] = test system: drug sensitive Staphylococcus aureus; settings: Etest system; cited from earlier work
[3] = test system: ATCC strain 43300 Staphylococcus aureus; settings: oxacillin alone, 12 μg/ml, 30 μg/ml and 60 μg/ml
Method: Additional antibiotic was added every 24 hours.
USP<51> Antimicrobial Effectiveness protocol was used as the template experimental paradigm. […] All concentrations were plated out to the 10^−7 dilutionsto ascertain cfu/ml. […] Additional antibiotic was added at the initial concentration every 24 hours.
ATCC strain 43300 Staphylococcus aureus was streaked out for isolations. An isolated colony was chosen, streaked again and incubated. Isolate was chosen and then diluted to a McFarland standard of one. The estimated value was then taken to inoculate tubes containing growth media and 12, 30 or 60 μg/ml oxacillin with approximately 10^5 cfu/ml. These tubes were incubated and plated for counting cfu.
Material was calculated on a 10 ml volume. Sterile oxacillin was added to each experimental condition to a final concentration of 12, 30 or 60 μg/ml antibiotic.
All tubes were then inoculated with a dilution of the selected ATCC strain 43300 Staphylococcus aureus clone giving a final level of colony forming units of 3.3×10^5/ml (log=5.52). The tubes were incubated at 25° C. and mixed periodically. Antibiotic was re-inoculated every 24 hours at the initial concentration to maintain pressure on the organism. Plating was done at 24, 48, 72, and 120 hours. Each condition was plated by diluting 1 ml of growth material into 9 ml of MLB diluent broth. […] This mixture was serial diluted down to 10^−7 with 1 ml placed in triplicate in a sterile petri dish at each dilution point. 20 mls of TSA was added to each dilution, swirled and allowed to solidify. All dilutions were placed in a 35° C. incubator for 24 to 72 hours. Bacterial colonies on each plate were counted and the average taken then changed into log format. Any cfu/ml observed greater than 3.3×10^5 (log=5.5) were recorded as >3.3×10^5.

Row | Compound | change in colony forming units from initial inoculum [1] | MIC [2] [µg/mL] | change in colony forming units from initial inoculum [3]
1 | COc1cccc(OC)c1C(=O)N[C@@H]1C(=O)N2[C@@H]1SC(C)(C)[C@@H]2C(=O)O [methicillin, reference compound] | no significant decrease in colony forming units |  | 
2 | Cc1onc(-c2ccccc2)c1C(=O)N[C@@H]1C(=O)N2[C@@H]1SC(C)(C)[C@@H]2C(=O)O [oxacillin, reference compound] |  | ≤ 2 | no significant decrease in colony forming units
